Where two headings read alike, the source gives them in different places.
Assays:
Assay type in all cases: cell-based, humaine
[1] = system: collagénase interstitielle (MMP-1); test: collagenase activity in the culture medium of fibroblasts; conditions: for Collagénase: Temps : 48 h, factor of change (summary table)
Procedure: (§1) Les résultats des essais présentés ci-après ont été obtenus selon la méthodologie suivante : Conditions de culture : les fibroblastes sont obtenus à partir d'explants de peau humaine. Les cellules sont maintenues en culture dans du milieu DMEM (Gibco) additionné de 10 % de sérum de veau foetal (Gibco) et d'antibiotiques (pénicilline 100 U/ml, streptomycine 100 µg/ml).
(§2) Les subcultures sont réalisées par trypsination (Trypsin-EDTA, Gibco). Les cellules sont utilisées du 2e au 10e passage.
(§3) Conditions de traitements : Les cultures de fibroblastes témoins se réferent aux cultures avec vecteurs sans principe actif, en quantité similaire aux autres traitements. Les cultures traitées avec la molécule en solution se réfèrent aux conditions de la culture témoin et de la molécule sous forme soluble.
(§4) Les cultures traitées avec la forme vectoriale de la molécule impliquent que la molécule active soit inclue préalablement dans les vecteurs.
Mesure de l'activité collagénasique dans le milieu de culture
On mesure la collagénase interstitielle qui dégrade les collagènes interstitiels natifs de type I-III. • a) Préparation du substrat : le collagène de type I, marqué au carbone-14, en solution dans CH3COOH 0,1 M est neutralisé à pH 7,4 par du Tris 1 M et dilué avec le tampon NaCl 0,15 M/CaCl2, 4 mM/Tris-HCl 50 mM, pH 7,4 contenant du NEM 0,5 mM et du PMSF 0,1mM à raison de […] substrat (= 10000 cpm/essai). • b) Dosage de la collagénase: 100 µl de milieu sont activés par 10 µl de trypsine (1 mg/ml) à 37°C pendant 10 mn, suivi de l'addition de 10 µl de SBTI (5 mg/ml): 10 mn à température ambiante. 100 µl de milieu sont aussi testés sans activation par la trypsine (mesure de la forme active de l'enzyme).
Le substrat (10000 cpm/essai) est ajouté, éventuellement en présence d'EDTA 25 mM, le volume final étant de 250 µl. La réaction se déroule pendant 18 h à 25°C puis est stoppée par addition de 20 µl d'EDTA 250 mM (10 mn à température ambiante).Le mélange est ensuite chauffé 10 mn à 39°C.
Le collagène non dégradé est précipité par l'éthanol à la concentration finale de 18 % (30 mn à température ambiante).
Finalement, le mélange est centrifugé à 6000 g pendant 30 mn à 4°C. Des aliquots de 200 µl des surnageants sont mélangés avec 5 ml de liquide scintillant aqueux puis comptés pour leur radioactivité.
Une unité de collagénase est définie comme la quantité d'enzyme nécessaire pour dégrader 1 µg de collagène natif par heure à 25°C.

fibroblastes [2] = test: summary conclusion on modulation of fibroblast activity (Tableau 10); conditions: Temps : 48 h
Description: Le tableau 10 ci-après résume les résultats obtenus. TABLEAU 10
Ce tableau montre bien la capacité qu'ont les vecteurs selon l'invention à moduler l'activité des fibroblastes lorsqu'ils portent à leur surface certaines fonctions hydrophiles fixées sur ledit vecteur par un ester ou une amide d'acide gras.

collagène de type III = test: radioimmunoassay of soluble collagen type III in fibroblast culture supernatant
Procedure: as §1, §2, §3, §4
(§5) Evaluation des collagènes solubles par dosage radioimmunologique : On prélève 100 µl de surnageant de culture et on y ajoute 100 µl d'anticorps anticollagène de type I ou anti-collagène de type III et 200 µl de PBS.

fibroblastes [3] = conditions: for prolifération des fibroblastes traités avec le Palmitate d'hydroxyproline: 10^4 cellules par puit
Procedure: as §1, §2, §3, §4
[…] Puis on ajoute le sel de tétrazolium jaune (5 mg / ml). Il est réduit par les réductases mitochondriales des cellules vivantes en un produit formazan violet qui est ensuite solubilisé par de l'HCl 0,04 N dans de l'isopropanol.
La réaction colorée est lue à une longueur d'onde de 570 nm par un Multiskan Titertek (Flow Laboratories) et exprimée en densité optique.

collagène de type I = system: collagène de type I
Procedure: as §1, §2, §3, §4, §5

For `O=C(O)[C@@H]1C[C@@H](O)CN1` [Hydroxyproline libre, Hydroxyproline], the Collagénase ([1]; 10 µg/ml) was “=”, the “CONCLUSION à 4.10⁵cell.” value (fibroblastes [2]; 10 µg/ml) was “Stimulant sélectif du collagène I” and the fold induction at 10 µg/mL (collagène de type III; Skin fibroblast, Temps : 48 h, 10 µg/ml, factor of change (summary table), read-out: Synthèse collag. III) was 2. The “Cytotoxicité Test MTT” value (fibroblastes [3]; Temps : 48 h, 10 µg/ml) was “non” and the Prolifération (fibroblastes [3]; Temps : 48 h, 10 µg/ml, factor of change (summary table)) was “=”.
In the case of `CCCCCCCCCCCCCCCC(=O)OC[C@H](O)[C@H]1OC(=O)C(O)=C1O` [palmitate d'ascorbyle en solution, palmitate d'ascorbyle], the Collagénase ([1]; 25 µg/ml) is reported as “=”, the “CONCLUSION à 4.10⁵cell.” value (fibroblastes [2]; 25 µg/ml) is reported as “Stimulants non sélectifs” and the fold induction at 25 µg/mL (collagène de type III; Skin fibroblast, Temps : 48 h, 25 µg/ml, factor of change (summary table), read-out: Synthèse collag. III) is reported as 30. For the same molecule, the “Cytotoxicité Test MTT” value (fibroblastes [3]; Temps : 48 h, 25 µg/ml) was “non”.
With “Palmitate d'hydroxyproline [Palmitate d'hydroxyproline Solution]” the “synthèse de collagène type I par des fibroblastes traités avec le palmitate d'hydroxyproline” value (collagène de type I; 24 heures, 1 µg/ml) was 268 ± 18 ng/mL, the “synthèse de collagène type I par des fibroblastes traités avec le palmitate d'hydroxyproline” value (collagène de type I; 24 heures, 5 µg/ml) was 232 ± 10 ng/mL and the “synthèse de collagène type I par des fibroblastes traités avec le palmitate d'hydroxyproline” value (collagène de type I; 48 heures, 1 µg/ml) was 519 ± 37 ng/mL. For the same molecule, the “synthèse de collagène type I par des fibroblastes traités avec le palmitate d'hydroxyproline” value (collagène de type I; 72 heures, 1 µg/ml) was 513 ± 77 ng/mL, the “synthèse de collagène type I par des fibroblastes traités avec le palmitate d'hydroxyproline” value (collagène de type I; 72 heures, 5 µg/ml) was 470 ± 5 ng/mL and the Collagénase ([1]; 40 µg/ml) was “=”. The “dose qui stimule de manière significative la synthèse de la collagénase” value ([1]; cultures de fibroblastes) was 1 µg/mL, the “CONCLUSION à 4.10⁵cell.” value (fibroblastes [2]; 40 µg/ml) was “inhibit. des collagènes” and the “synthèse de collagène type III par des fibroblastes traités avec le palmitate d'hydroxyproline” value (collagène de type III; 24 heures, 1 µg/ml) was 295 ± 24 ng/mL. The “synthèse de collagène type III par des fibroblastes traités avec le palmitate d'hydroxyproline” value (collagène de type III; 24 heures, 5 µg/ml) was 281 ± 16 ng/mL, the “synthèse de collagène type III par des fibroblastes traités avec le palmitate d'hydroxyproline” value (collagène de type III; 48 heures, 1 µg/ml) was 588 ± 69 ng/mL and the “synthèse de collagène type III par des fibroblastes traités avec le palmitate d'hydroxyproline” value (collagène de type III; 48 heures, 5 µg/ml) was 519 ± 20 ng/mL. The “synthèse de collagène type III par des fibroblastes traités avec le palmitate d'hydroxyproline” value (collagène de type III; 72 heures, 1 µg/ml) was 628 ± 161 ng/mL, the “synthèse de collagène type III par des fibroblastes traités avec le palmitate d'hydroxyproline” value (collagène de type III; 72 heures, 5 µg/ml) was 548 ± 24 ng/mL and the “prolifération des fibroblastes traités avec le Palmitate d'hydroxyproline” value (fibroblastes [3]; 24 heures, 1 µg / ml) was 0,493 ± 0,029 densité optique. The “prolifération des fibroblastes traités avec le Palmitate d'hydroxyproline” value (fibroblastes [3]; 24 heures, 5 µg / ml) was 0,492 ± 0,016 densité optique, the “prolifération des fibroblastes traités avec le Palmitate d'hydroxyproline” value (fibroblastes [3]; 24 heures, 10 µg / ml) was 0,502 ± 0,019 densité optique and the “prolifération des fibroblastes traités avec le Palmitate d'hydroxyproline” value (fibroblastes [3]; 24 heures, 20 µg / ml) was 0,457 ± 0,022 densité optique. The “prolifération des fibroblastes traités avec le Palmitate d'hydroxyproline” value (fibroblastes [3]; 48 heures, 1 µg / ml) was 0,494 ± 0,012 densité optique, the “prolifération des fibroblastes traités avec le Palmitate d'hydroxyproline” value (fibroblastes [3]; 48 heures, 5 µg / ml) was 0,513 ± 0,025 densité optique and the “prolifération des fibroblastes traités avec le Palmitate d'hydroxyproline” value (fibroblastes [3]; 48 heures, 10 µg / ml) was 0,511 ± 0,020 densité optique. For the same molecule, the “prolifération des fibroblastes traités avec le Palmitate d'hydroxyproline” value (fibroblastes [3]; 48 heures, 20 µg / ml) was 0,471 ± 0,028 densité optique, the “prolifération des fibroblastes traités avec le Palmitate d'hydroxyproline” value (fibroblastes [3]; 72 heures, 1 µg / ml) was 0,490 ± 0,019 densité optique and the “prolifération des fibroblastes traités avec le Palmitate d'hydroxyproline” value (fibroblastes [3]; 72 heures, 5 µg / ml) was 0,500 ± 0,028 densité optique. For the same molecule, the “prolifération des fibroblastes traités avec le Palmitate d'hydroxyproline” value (fibroblastes [3]; 72 heures, 10 µg / ml) was 0,496 ± 0,017 densité optique and the “dose à partir de laquelle une cytotoxicité est détectée” value (fibroblastes [3]; human, skin fibroblasts) was at least 20 µg/mL.
